Biological target: T1, AT1R (Homo sapiens, UniProt P30556)
T1 construct: Tb (terbium) label on the receptor; expressed in transfected cells
T1 sequence (P30556 1-359): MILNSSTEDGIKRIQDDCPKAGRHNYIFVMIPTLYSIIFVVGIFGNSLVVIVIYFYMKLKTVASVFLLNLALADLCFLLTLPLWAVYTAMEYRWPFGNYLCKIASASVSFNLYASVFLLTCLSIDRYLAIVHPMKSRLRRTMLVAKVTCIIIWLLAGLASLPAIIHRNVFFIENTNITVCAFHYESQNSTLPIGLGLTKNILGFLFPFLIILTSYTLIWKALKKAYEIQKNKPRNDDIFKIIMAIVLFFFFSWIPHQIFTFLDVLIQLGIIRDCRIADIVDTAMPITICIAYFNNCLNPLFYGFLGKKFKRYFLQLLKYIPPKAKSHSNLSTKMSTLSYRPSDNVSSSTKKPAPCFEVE
Assay: Antagonistic activity against AT1R (same method with Tb-labeled-AT1R cells)
Format: binding
Experimental: (12) Similarly, the IC50 of the antagonistic activity of the compounds of the present invention against AT1R was tested according to basically the same method, except that Tb-labeled-AT2R cells were replaced by Tb-labeled-AT1R cells.

Compound: COc1ccc(COc2c(OC)ccc3c2C[C@@H](C(=O)[O-])N(c2nc4ccc(F)cc4o2)C3)nc1.[Na+] [Compound 1]
- IC50: > 10 µM

Reference: patent US12606551B2, “Salt of tetrahydroisoquinoline derivative, preparation method therefor, and medical use thereof” (ZHEJIANG HISUN PHARMACEUTICAL CO., LTD., priority 2020, dated 2026)
